The values that follow come from patent US7811797B2, “α-isomaltosylglucosaccharide-forming enzyme, process and uses of the same” (Kabushiki Kaisha Hayashibara Seibutsu Kagaku Kenkyujo, priority 2000, dated 2010).

Where two headings read alike, the source gives them in different places.

Data set [1] concerns the target T1, Amylopsin (Homo sapiens, UniProt P04746).
T1 sequence (P04746 16-511): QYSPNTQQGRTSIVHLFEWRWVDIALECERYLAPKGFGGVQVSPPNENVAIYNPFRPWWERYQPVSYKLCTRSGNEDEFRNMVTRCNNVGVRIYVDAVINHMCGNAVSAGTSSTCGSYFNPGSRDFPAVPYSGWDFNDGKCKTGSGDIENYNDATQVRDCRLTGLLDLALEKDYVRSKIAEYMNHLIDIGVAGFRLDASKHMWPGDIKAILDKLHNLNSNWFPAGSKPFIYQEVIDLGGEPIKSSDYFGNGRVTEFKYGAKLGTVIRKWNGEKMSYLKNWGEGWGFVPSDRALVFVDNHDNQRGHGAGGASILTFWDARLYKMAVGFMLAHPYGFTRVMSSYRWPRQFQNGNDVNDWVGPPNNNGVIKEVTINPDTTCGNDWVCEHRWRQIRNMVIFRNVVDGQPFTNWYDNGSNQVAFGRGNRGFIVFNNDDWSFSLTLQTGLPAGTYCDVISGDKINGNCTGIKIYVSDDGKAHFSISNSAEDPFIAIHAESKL
Description: Digestion test in vitro, amylopsin.

Data set [2] has as its system α-isomaltosylglucosaccharide-forming enzyme. The experiment in a line: Transfer-acceptor specificity, Enzyme of Strain C11. It counts as biochemical, Bacillus globisporus C11. Conditions: acceptor 1.6%, PINE-DEX #100 donor 4%, one unit/g donor, 30° C., pH 6.0, 24 hours.
A short description of the next data set: Inclusion action. The class given is physicochemical. The method, then: To 100 g of the aqueous solution was added 2 g of methanol, 3 g of ethanol, or 4.6 g acetic acid to be included by the cyclotetrasaccharide. Thereafter, each of the resulting solutions was filtered to remove non-included products, and the filtrate was dried in vacuo. As a control, similar inclusion products were prepared by using “ISOELITE™ P”, a branched cyclodextrin commercialized by Maruha K.K., Tokyo, Japan, which were known to have inclusion ability.
To measure the amount of the inclusion products in the resulting lyophilized powders, one gram of each powder was dissolved in five milliliters water and extracted after admixing with five milliliters of diethylether. The extraction was repeated, and the resulting extracts were quantified on gas chromatography.

The subject of data set [3] is Lactobacillus acidophilus JCM 1132. The experiment in a line: Assimilation test, Lactobacillus acidophilus. It counts as cell-based. The settings on record: PYF medium with 0.5% saccharide, 37° C., four days, anaerobic.
In data set [4] the test system is Bacteroides vulgatus JCM 5826. The experiment in a line: Assimilation test, Bacteroides vulgatus. The class given is cell-based. Conditions: PYF medium with 0.5% saccharide, 37° C., four days, anaerobic.
Data set [5] addresses T1, Amylopsin.
Data set [6] is described as follows: Saturation concentration of cyclotetrasaccharide in water. It counts as physicochemical. From the text:
Each resulting saturated solution of cyclotetrasaccharide was membrane filtered to remove undissolved cyclotetrasaccharide, and each filtrate was then examined for moisture content by the drying loss method to determine a saturation concentration of cyclotetrasaccharide at respective temperatures.

Take `OC[C@@H](O)[C@@H](O[C@H]1O[C@H](CO)[C@@H](O)[C@H](O)[C@H]1O)[C@H](O)[C@@H](O)CO` [Maltitol, reference compound]: the “Decomposition percentage (%) by digestive enzyme” value at Amylopsin [1] came to 0.0%. Besides, the “Product of transferring reaction, Enzyme of Strain C11” value in data set [2] is “++ (a saccharide-transferred product was detected in an amount over ten percent through transfer reaction to acceptor)”.
On to `OCC1OC2OCC3O[C@H](O[C@H]4C(O)C(CO)OC(OCC5O[C@H](O[C@@H](C1O)C2O)C(O)C(O)[C@@H]5O)C4O)C(O)C(O)[C@@H]3O` (stereo partly drawn) [Cyclotetrasaccharide, cyclo{→6)-α-D-glucopyranosyl-(1→3)-α-D-glucopyranosyl-(1→6)-α-D-glucopyranosyl-(1→3)-α-D-glucopyransoyl-(1→}], for which the “inclusion ability relative to that of the branched cyclodextrin” value in the data set “Inclusion action” (by weight) is reported as “about 2 folds”. The “Inclusion amount (mg/g lyophilized powder)” value in the data set “Inclusion action” (inclusion product Acetic acid) is on record as 67.74 mg/g lyophilized powder; in “Inclusion action” (inclusion product Ethanol), 17.26 mg/g lyophilized powder; in “Inclusion action” (inclusion product Methanol), 6.71 mg/g lyophilized powder. Moreover, the Assimilability result in data set [3] and in data set [4] was “− (judged negative (−) when the post culture had a pH of 6.0 or higher)” each time. Further, the “Decomposition percentage (%) by digestive enzyme” value on Amylopsin [5] is reported as 0.0%. The “Saturation concentration (%)” value was determined as 30.3% in data set [6] (10° C.); 34.2% in data set [6] (30° C.); 42.6% in data set [6] (50° C.); 53.0% in data set [6] (70° C.); 70.5% in data set [6] (90° C.).
